Patent US6602880B2, “3-phenyl-3,7-diazabicyclo[3.3.1] nonane compounds, process for preparing them, pharmaceutical compositions containing them and use thereof to inhibit cardiac arrhythmia” (priority 2001, dated 2003)

Key:
[1] = system: isolated perfused rabbit hearts; assay: In vitro potential proarrhythmogenity on isolated perfused rabbit hearts (monophasic action potential); conditions: three hearts (n=3), one value each; for Instability: control about 7 ms; for Triangulation: control about 90 ms
Experimental: The extent of the potential proarrhythmogenity of Class III antiarrhythmic substances can be estimated using the measurement of electrophysiological parameters such as “instability” and “triangulation” (see below) on the monophasic action potential, derived from isolated perfused rabbit hearts. The pharmacological test set forth below was performed analogously to the method fundamentally described in L. M. Hondeghem et al., Circulation 103 (2001) 2004-2013 (referred to hereafter as “Hondeghem et al.”), in conjunction with L. M. Hondeghem, Journal of Cardiovascular Electrophysiology 5(8) (1994) 711-721 (referred to hereafter as “Hondeghem”). The hearts were quickly removed from rabbits which had been sacrificed by a blow to the back of the neck, and were immediately perfused in a Langendorff arrangement under constant pressure (80 cm H2O) with temperature-controlled oxygenated nutrient solution. The heart was stimulated with different stimulation protocols using two stimulation electrodes which were each arranged in the region of the right and left crus of the bundle of His (cf. “Hondeghem et al.”). Two further electrodes (one discharge electrode endocardially in the region of the septum of the left ventricle and a reference electrode epicardially on the left ventricle) served to discharge the monophasic action potential.
Using the monophasic action potential duration with different repolarisation levels (APD10-90; “APD10” designates the action potential duration until the occurrence of 10% of repolarisation), the following parameters were derived as indicators of the proarrhythmogenity:
(1) Instability: The change in the APD60 from heartbeat to heartbeat is designated “instability”. Under control conditions, this value is on average about 7 milliseconds (=ms). Greater deviations from this average value towards a longer duration (>7 ms) indicate an increased probability of occurrence for proarrhythmias caused by the test substances investigated.
(2) Triangulation: The repolarisation time in ms from APD30 to ADP90 is designated “triangulation”. Under control conditions, this value is usually about 90 ms.
The results obtained with the method described above on three hearts (n=3) in each case are reproduced in the following Table D.

iKr (HERG) = target: T1, iKr (HERG) (Homo sapiens, UniProt Q12809); assay: Blocking action on rapid delayed rectifier potassium current iKr (HERG), HEK293 cells stably transfected; format: cell-based; conditions: HEK293 cells stably transfected with HERG
T1 construct: expressed in transfected cells; host or cells: HEK293 (ATCC CRL-1573), stably transfected
T1 sequence (Q12809 whole entry): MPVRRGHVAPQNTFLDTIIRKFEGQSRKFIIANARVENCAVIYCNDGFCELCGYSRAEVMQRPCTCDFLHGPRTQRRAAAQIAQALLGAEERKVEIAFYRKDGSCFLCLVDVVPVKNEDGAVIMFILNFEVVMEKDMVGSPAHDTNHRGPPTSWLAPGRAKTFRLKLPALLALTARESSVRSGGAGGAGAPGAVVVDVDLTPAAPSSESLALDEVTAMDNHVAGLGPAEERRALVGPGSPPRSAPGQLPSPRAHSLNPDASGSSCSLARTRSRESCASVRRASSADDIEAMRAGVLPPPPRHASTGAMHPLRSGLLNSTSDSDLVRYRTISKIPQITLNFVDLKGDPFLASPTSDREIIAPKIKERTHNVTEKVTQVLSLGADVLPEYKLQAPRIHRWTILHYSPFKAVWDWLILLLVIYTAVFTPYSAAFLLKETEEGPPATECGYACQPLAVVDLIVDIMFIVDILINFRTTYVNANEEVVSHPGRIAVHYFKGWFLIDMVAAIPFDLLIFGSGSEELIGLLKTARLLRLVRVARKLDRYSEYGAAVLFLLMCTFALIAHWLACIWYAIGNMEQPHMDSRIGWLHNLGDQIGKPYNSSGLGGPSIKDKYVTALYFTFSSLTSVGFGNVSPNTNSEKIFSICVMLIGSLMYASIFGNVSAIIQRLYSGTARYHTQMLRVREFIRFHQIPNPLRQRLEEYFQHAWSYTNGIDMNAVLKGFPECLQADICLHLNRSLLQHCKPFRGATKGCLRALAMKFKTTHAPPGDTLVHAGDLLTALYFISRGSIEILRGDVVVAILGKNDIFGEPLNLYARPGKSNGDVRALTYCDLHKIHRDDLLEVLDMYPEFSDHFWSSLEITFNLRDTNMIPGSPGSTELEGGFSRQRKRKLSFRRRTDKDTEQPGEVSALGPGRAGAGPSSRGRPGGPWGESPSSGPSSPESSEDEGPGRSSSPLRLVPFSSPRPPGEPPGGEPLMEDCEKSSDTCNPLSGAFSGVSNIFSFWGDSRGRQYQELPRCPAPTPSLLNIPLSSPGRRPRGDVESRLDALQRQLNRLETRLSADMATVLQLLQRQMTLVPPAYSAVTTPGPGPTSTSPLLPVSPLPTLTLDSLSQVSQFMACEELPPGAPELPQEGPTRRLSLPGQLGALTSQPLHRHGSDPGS
Experimental: The iKr (HERG) can be measured selectively in the manner stated below: to measure the iKr, a cell line (human embryonal kidney cells, HEK293; see e.g. American Tissue Culture Collection (=ATCC) No.: CRL-1573) is used, which is stably transfected with the gene for the iKr (HERG) (cf. Z. Zhou et al., Biophysical Journal 74(1) (1998) 230-241). […] The iKr is determined using the current amplitude at −40 mV holding potential immediately after a 500 ms pulse protocol of −75 mV holding potential at most +10 mV depolarisation. That substance concentration at which 50% of the maximum current is blocked (IC50 %) is determined from the inhibitions of the corresponding current at different substance concentrations.

anaesthetised cats = assay: In vivo fibrillation threshold in anaesthetised cats; set-up: species or system cat; conditions: more marked on the atrium than on the ventricle
Excerpt: Such an atrioselective increase in the fibrillation threshold is an indication that the tested compound has a beneficial action profile with a reduced proarrhythmogenity risk.

[2] = system: isolated papillary muscle of the right ventricle of guinea pigs; assay: In vitro functional refractory period on electrically stimulated papillary muscles from guinea-pig hearts; conditions: concentration prolonging FRP by 12 milliseconds; stimulation 3 Hz; 20 minutes after addition
Experimental: The heart was quickly removed from guinea pigs which had been sacrificed by a blow to the back of the neck and the papillary muscles of the right ventricle were fixed in organ baths through which temperature-controlled oxygenated nutrient solution flowed. The muscle preparations were electrically stimulated with a frequency of 3 Hz. The test substances were added to the organ baths in increasing concentrations (cumulatively). In each case 20 minutes after addition of the test substance, the functional refractory period was determined by means of a double pulse protocol. In each case a cumulative concentration/action curve was plotted from the measured values. The concentration at which a prolongation of the FRP by 12 milliseconds was achieved was calculated from this as the effective concentration (=FRP-EC+12ms).

iKs = target: T2, iKs (Canis lupus familiaris, UniProt A0A8I3N8W8); assay: Blocking action on slow delayed rectifier potassium current iKs, whole-cell patch-clamp on dog cardiac muscle cells; format: cell-based; conditions: dog left ventricle cardiac muscle cells; 1 μM nisoldipine and 2 μM E-4031 added; holding potential -40 mV
T2 construct: the individualised cardiac muscle cells are investigated electrophysiologically using the “whole-cell patch-clamp” method; from tissue; host or cells: isolated dog left ventricular cardiac muscle cells
T2 sequence (A0A8I3N8W8 1-676): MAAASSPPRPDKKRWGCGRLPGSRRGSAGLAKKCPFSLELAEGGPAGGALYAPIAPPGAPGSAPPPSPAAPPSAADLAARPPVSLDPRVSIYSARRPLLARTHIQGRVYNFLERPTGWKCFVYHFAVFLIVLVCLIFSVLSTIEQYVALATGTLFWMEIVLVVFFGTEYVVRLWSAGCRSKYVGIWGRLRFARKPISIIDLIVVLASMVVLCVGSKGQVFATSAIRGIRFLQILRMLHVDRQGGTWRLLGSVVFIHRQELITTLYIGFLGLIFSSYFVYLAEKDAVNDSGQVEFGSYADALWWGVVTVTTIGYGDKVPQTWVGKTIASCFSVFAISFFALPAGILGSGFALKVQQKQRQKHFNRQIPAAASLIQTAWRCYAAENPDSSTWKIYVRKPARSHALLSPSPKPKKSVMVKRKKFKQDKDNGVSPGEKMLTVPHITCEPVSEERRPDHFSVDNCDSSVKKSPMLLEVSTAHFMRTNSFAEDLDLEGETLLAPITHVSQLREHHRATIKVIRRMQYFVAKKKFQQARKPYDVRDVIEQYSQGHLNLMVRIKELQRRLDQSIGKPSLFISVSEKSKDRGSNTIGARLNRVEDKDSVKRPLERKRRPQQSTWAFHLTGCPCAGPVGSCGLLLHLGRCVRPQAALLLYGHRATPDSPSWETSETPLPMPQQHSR
Experimental: The iKs can be measured selectively in the manner described below: the hearts are quickly removed from anaesthetised dogs and a muscle section from the left ventricle is perfused with collagenase-containing solution via an arterial vessel. The well-dissociated tissue is comminuted and the individualised cardiac muscle cells are investigated electrophysiologically using the “whole-cell patch-clamp” method (cf. O. P. […] The iKs is then determined using the current amplitude immediately after a 5-second pulse protocol of -40 mV holding potential at most +50 mV depolarisation. The iKr (HERG) can be measured selectively in the manner stated below: to measure the iKr, a cell line (human embryonal kidney cells, HEK293; see e.g. American Tissue Culture Collection (=ATCC) No.: CRL-1573) is used, which is stably transfected with the gene for the iKr (HERG) (cf. Z. Zhou et al., Biophysical Journal 74(1) (1998) 230-241). […] The iKr is determined using the current amplitude at -40 mV holding potential immediately after a 500 ms pulse protocol of -75 mV holding potential at most +10 mV depolarisation. That substance concentration at which 50% of the maximum current is blocked (IC50 %) is determined from the inhibitions of the corresponding current at different substance concentrations.

mice = assay: Determination of the minimum toxic dose; format: in vivo; conditions: mouse p.o.; lowest dose causing death or severe toxic symptoms; maximum dose 300 mg/kg; observed 72 hours
Experimental: Male mice each having a weight of 20 to 25 g were administered maximum doses of 300 mg/kg of the test substance p.o. The animals were observed carefully for toxicity symptoms for 3 hours. Additionally all symptoms and deaths were recorded over a period of 72 hours after administration. Concomitant symptoms were likewise observed and recorded. If death or severe toxic symptoms were observed, further mice were administered increasingly lower doses until toxic symptoms no longer occurred. The lowest dose which caused death or severe toxic symptoms is indicated in the following Table A as the minimum toxic dose.

[3] = system: anaesthetised guinea pigs; assay: In vivo antiarrhythmic properties (ERP) and blood pressure under tachycardic conditions in anaesthetised guinea pigs; set-up: species or system guinea pig; conditions: i.v.
Excerpt: The effects of the substances on the effective refractory period (=ERP) and the blood pressure on i.v. administration with increased heart rate were investigated on anaesthetised guinea pigs. A bipolar stimulation catheter was inserted into the right ventricle of the animals via a jugular vein under full anaesthesia. The heart rates of the animals were kept at about 150% of their normal heart rates via this catheter by means of electrical stimulation during the entire investigation. A cannula for i.v. administration of the test substances was inserted in the other jugular vein. During the investigation, the systolic and the diastolic arterial blood pressure (=SAP and DAP) were measured in a carotid artery via a pressure gauge (Statham pressure transducer). The test substances were administered i.v. in increasing doses (cumulatively). Before administration of the first dose and in each case 8 minutes after administration of each dose, the ERP was determined by means of a double pulse protocol. The dose at which a prolongation of the ERP to 115% of the starting value was achieved was considered as the effective dose (=ERP-ED115). Effective doses for a hypotensive effect were considered as the dose at which the SAP was decreased to 85% of its starting value (=SAP-ED85), and the dose at which the DAP was decreased to 85% of its starting value (=DAP-ED85).

Structure (SMILES)	Instability ([1]; 0.3 μM)	Triangulation ([1]; 0.3 μM)	Instability ([1]; 1 μM)	Triangulation ([1]; 1 μM)	IC50 (iKr (HERG)) [nM]	increase in the fibrillation threshold (anaesthetised cats; administration i.v.)	increase in the fibrillation threshold (anaesthetised cats; administration p.o.)	Antiarrhythmic action FRP-EC+12 ms [2] [µmol/L]	IC50 (iKs) [nM]	Minimum toxic dose (mice) [mg/kg]	Antiarrhythmic action ERP-ED115 ([3]; cumulative doses, dose prolonging ERP to 115% of starting value, heart rate about 150% of normal) [µmol/kg]	Vasodepression ED85 DAP ([3]; dose decreasing diastolic arterial pressure to 85% of starting value, >> = no tendency to vasodepression at the doses tested)	Vasodepression ED85 SAP ([3]; dose decreasing systolic arterial pressure to 85% of starting value, >> = no tendency to vasodepression at the doses tested)
CCCCN1CC2CN(c3ccc(C#N)cc3)CC(C1)C21CCCC1.O=C(O)C(O)C(O)C(=O)O [Example 4, 7-(n-Butyl)-3-(4-cyanophenyl)-9,9-tetramethylene-3,7-diazabicyclo[3.3.1]nonane Hydrogen Tartrate]	6/3/3	48/64/62	6/25/7	52/79/79	20	dosage-dependent, clear, long-lasting increase in the fibrillation threshold	dosage-dependent, clear, long-lasting increase in the fibrillation threshold	0.8	700				
CCCCN1CC2CN(c3ccc([N+](=O)[O-])cc3[N+](=O)[O-])CC(C1)C2(C)C [Example 1, 7-(n-Butyl)-3-(2,4-dinitrophenyl)-9,9-dimethyl-3,7-diazabicyclo[3.3.1]nonane]								0.6		300	0.4	>>10 μmol/kg	>>10 μmol/kg
